In US20130115356A1, “SWEETENER COMPOSITION” (FIRMENICH SA, priority 2010, published 2013):

How the values were obtained:
[1] = Trained panel taste evaluation of lemon ice tea beverages; format: in vivo, human; details: conclusion from Table 3, sclareolide 0.075 wt % in Base B
Protocol: Lemon ice tea beverages were prepared with the following ingredients in the amounts shown (grams). Base A is the full sucrose product (i.e. control sample). Base B is the same as base A except with 50% reduced sucrose and additional stevia sweetener in to provide the same level of sweetness.
The ingredients for each base were mixed together until fully dissolved.
The samples were then evaluated by a trained panel of 10 people. Tasting was performed by a blind and balanced presentation order of the samples with the intensity of acidity, bitterness, sweetness and liquorice all being assessed on a scale of 0 to 5 where 0 represents not perceptible and 5 represents very intense.
The scores were averaged and an analysis of variance was performed to identify significant differences between the samples.

[2] = Panel evaluation of a carbonated lemon beverage formulation; format: in vivo, human; details: carbonated lemon beverage with stevia
Protocol: A lemon beverage syrup base was prepared by mixing together the following ingredients:
To a 1 litre portion of the syrup base was added 6 g of sclareolide, ex Avoca (1% w/v ethanolic solution). The mixture was then dilute with 5 litres of carbonated water to provide sclareolide at 10 ppm. This is referred to as sample 6.
To another 1 litre portion of the syrup base was added 0.12 g of sclareolide, ex Avoca (1% w/v ethanolic solution). The mixture was then dilute with 5 litres of carbonated water to provide sclareolide at 0.2 ppm. This is referred to as sample 7.
A third portion of the syrup base was used as is (i.e. with no sclareolide present) and was diluted with 5 litres of carbonated water. This is referred to as sample 8.
30 panellists were then asked to evaluate (i) sample 6 and sample 8 and (ii) sample 7 and sample 8 in a balanced, randomized blind test for Overall Flavor, Sweetness, Tartness/Acidity, Lingering Aftertaste, Metallic/Bitterness, Off-note aftertaste and Liquorice Flavor on an 11-point continuous intensity scale where 0=Imperceptible and 10=Extremely Pronounced.

For `CC1(C)CCC[C@]2(C)[C@H]3CC(=O)O[C@]3(C)CC[C@@H]12` [sclareolide], the “effect on the acidity, bitterness or sweetness of the product” value [1] was “does not appear to have a significant effect”, the “effect on the liquorice taste of the product” value [1] was “significantly reduces the liquorice taste” and the masking effect ([2]; sclareolide at 0.2 ppm) was “little or no masking effect observed”. For the same compound, the masking liquorice notes ([2]; sclareolide at 10 ppm) was “not achieved”.
